Source: US20100099561A1, “HETEROBICYCLIC ALKYLTHIO-BRIDGED ISOXAZOLINES” (E.I. DU PONT DE NEMOURS AND COMPANY, priority 2008, published 2010)

What was measured:
Assay type in all cases: in vivo
[1] = tested on: large crabgrass (Digitaria sanguinalis); assay: Test A preemergence, large crabgrass; conditions: 0 to 100 scale (0 no effect, 100 complete control)
How it was run: (§1)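 Ratings of 0–100 (0 no effect, 100 complete control) came from visual comparison with untreated controls after roughly ten days in a greenhouse. Plants in loam soil–sand blend were treated with compound in non-phytotoxic solvent plus surfactant, pre- or postemergence (one- to two-leaf stage).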

[2] = tested on: giant foxtail (Setaria faberi); assay: Test A preemergence, giant foxtail; conditions: 0 to 100 scale (0 no effect, 100 complete control)
How it was run: as §1

[3] = tested on: velvetleaf (Abutilon theophrasti); assay: Test A postemergence, velvetleaf; conditions: 0 to 100 scale (0 no effect, 100 complete control)
How it was run: as §1

[4] = tested on: pigweed (Amaranthus retroflexus); assay: Test A postemergence, pigweed; conditions: 0 to 100 scale (0 no effect, 100 complete control)
How it was run: as §1

rice (Oryza sativa) = assay: Test B flooded paddy test, rice; conditions: Flood, scale 0 to 100
How it was run: (§2)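 Step one: raise plants to 2 leaves. Step two: flood pots 3 cm over the soil and apply compound into the water, keeping this depth. Step three: after 13–15 greenhouse days, score visually versus controls, 0–100, where 100 means complete control.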

[5] = tested on: wheat (Triticum aestivum); assay: Test A preemergence, wheat; conditions: 0 to 100 scale (0 no effect, 100 complete control)
How it was run: as §1

[6] = tested on: umbrella sedge (Cyperus difformis); assay: Test B flooded paddy test, umbrella sedge; conditions: Flood, scale 0 to 100
How it was run: as §2

[7] = tested on: pigweed (Amaranthus retroflexus); assay: Test A preemergence, pigweed; conditions: 0 to 100 scale (0 no effect, 100 complete control)
How it was run: as §1

corn (Zea mays) [8] = assay: Test A preemergence, corn; conditions: 0 to 100 scale (0 no effect, 100 complete control)
How it was run: as §1

[9] = tested on: velvetleaf (Abutilon theophrasti); assay: Test A preemergence, velvetleaf; conditions: 0 to 100 scale (0 no effect, 100 complete control)
How it was run: as §1

[10] = tested on: barnyardgrass (Echinochloa crus-galli); assay: Test A preemergence, barnyardgrass; conditions: 0 to 100 scale (0 no effect, 100 complete control)
How it was run: as §1

[11] = tested on: morningglory (Ipomoea spp.); assay: Test A preemergence, morningglory; conditions: 0 to 100 scale (0 no effect, 100 complete control)
How it was run: as §1

[12] = tested on: wheat (Triticum aestivum); assay: Test A postemergence, wheat; conditions: 0 to 100 scale (0 no effect, 100 complete control)
How it was run: as §1

[13] = tested on: barnyardgrass (Echinochloa crus-galli); assay: Test B flooded paddy test, barnyardgrass; conditions: Flood
How it was run: as §2

[14] = tested on: ducksalad (Heteranthera limosa); assay: Test B flooded paddy test, ducksalad; conditions: Flood, scale 0 to 100
How it was run: as §2

[15] = tested on: morningglory (Ipomoea spp.); assay: Test A postemergence, morningglory; conditions: 0 to 100 scale (0 no effect, 100 complete control)
How it was run: as §1

[16] = tested on: barnyardgrass (Echinochloa crus-galli); assay: Test A postemergence, barnyardgrass; conditions: 0 to 100 scale (0 no effect, 100 complete control)
How it was run: as §1

corn (Zea mays) [17] = assay: Test A postemergence, corn; conditions: 0 to 100 scale (0 no effect, 100 complete control)
How it was run: as §1

[18] = tested on: large crabgrass (Digitaria sanguinalis); assay: Test A postemergence, large crabgrass; conditions: 0 to 100 scale (0 no effect, 100 complete control)
How it was run: as §1

[19] = tested on: giant foxtail (Setaria faberi); assay: Test A postemergence, giant foxtail; conditions: 0 to 100 scale (0 no effect, 100 complete control)
How it was run: as §1

[20] = 250 g ai/ha, scale 0 to 100 (0 no effect, 100 complete control)

SMILES: CC1(C)CC(S(=O)(=O)Cc2c(C(F)(F)F)nc3cccnn3c2=O)=NO1 [Compound 45]
- Plant response rating, Crabgrass, Large ([1]; 125 g ai/ha): 20
- Plant response rating, Crabgrass, Large ([1]; 500 g ai/ha): 90
- Plant response rating, Foxtail, Giant ([2]; 125 g ai/ha): 30
- Plant response rating, Foxtail, Giant ([2]; 500 g ai/ha): 90
- Plant response rating, Velvetleaf ([3]; 125 g ai/ha): 0
- Plant response rating, Velvetleaf ([3]; 500 g ai/ha): 0
- Plant response rating, Pigweed ([4]; 125 g ai/ha): 0
- Plant response rating, Pigweed ([4]; 500 g ai/ha): 10
- Plant response rating, Rice (rice (Oryza sativa); 31 g ai/ha): 0
- Plant response rating, Rice (rice (Oryza sativa); 62 g ai/ha): 0
- Plant response rating, Rice (rice (Oryza sativa); 125 g ai/ha): 0
- Plant response rating, Rice (rice (Oryza sativa); 250 g ai/ha): 0
- Plant response rating, Wheat ([5]; 125 g ai/ha): 0
- Plant response rating, Wheat ([5]; 500 g ai/ha): 10
- Plant response rating, Sedge, Umbrella ([6]; 31 g ai/ha): 0
- Plant response rating, Sedge, Umbrella ([6]; 62 g ai/ha): 0
- Plant response rating, Sedge, Umbrella ([6]; 125 g ai/ha): 0
- Plant response rating, Sedge, Umbrella ([6]; 250 g ai/ha): 0
- Plant response rating, Pigweed ([7]; 500 g ai/ha): 0
- Plant response rating, Corn (corn (Zea mays) [8]; 125 g ai/ha): 0
- Plant response rating, Corn (corn (Zea mays) [8]; 500 g ai/ha): 0
- Plant response rating, Velvetleaf ([9]; 125 g ai/ha): 0
- Plant response rating, Velvetleaf ([9]; 500 g ai/ha): 0
- Plant response rating, Barnyardgrass ([10]; 125 g ai/ha): 20
- Plant response rating, Barnyardgrass ([10]; 500 g ai/ha): 90
- Plant response rating, Morningglory ([11]; 125 g ai/ha): 0
- Plant response rating, Morningglory ([11]; 500 g ai/ha): 0
- Plant response rating, Wheat ([12]; 125 g ai/ha): 0
- Plant response rating, Wheat ([12]; 500 g ai/ha): 0
- Plant response rating, Barnyardgrass ([13]; 31 g ai/ha, scale 0 to 100): 0
- Plant response rating, Barnyardgrass ([13]; 62 g ai/ha, scale 0 to 100): 0
- Plant response rating, Barnyardgrass ([13]; 125 g ai/ha, scale 0 to 100): 0
- Plant response rating, Barnyardgrass [13, 20]: 0
- Plant response rating, Ducksalad ([14]; 31 g ai/ha): 0
- Plant response rating, Ducksalad ([14]; 62 g ai/ha): 0
- Plant response rating, Ducksalad ([14]; 125 g ai/ha): 0
- Plant response rating, Ducksalad ([14]; 250 g ai/ha): 0
- Plant response rating, Morningglory ([15]; 125 g ai/ha): 0
- Plant response rating, Morningglory ([15]; 500 g ai/ha): 30
- Plant response rating, Barnyardgrass ([16]; 125 g ai/ha): 30
- Plant response rating, Barnyardgrass ([16]; 500 g ai/ha): 70
- Plant response rating, Corn (corn (Zea mays) [17]; 125 g ai/ha): 0
- Plant response rating, Corn (corn (Zea mays) [17]; 500 g ai/ha): 0
- Plant response rating, Crabgrass, Large ([18]; 125 g ai/ha): 20
- Plant response rating, Crabgrass, Large ([18]; 500 g ai/ha): 70
- Plant response rating, Foxtail, Giant ([19]; 125 g ai/ha): 20
- Plant response rating, Foxtail, Giant ([19]; 500 g ai/ha): 60

SMILES: CC1(C)CC([S+]([O-])Cc2c(C(F)(F)F)nc3cccnn3c2=O)=NO1 (centres unmarked) [Compound 46]
- Plant response rating, Crabgrass, Large ([1]; 125 g ai/ha): 0
- Plant response rating, Crabgrass, Large ([1]; 500 g ai/ha): 0
- Plant response rating, Foxtail, Giant ([2]; 125 g ai/ha): 0
- Plant response rating, Foxtail, Giant ([2]; 500 g ai/ha): 0
- Plant response rating, Velvetleaf ([3]; 125 g ai/ha): 0
- Plant response rating, Velvetleaf ([3]; 500 g ai/ha): 0
- Plant response rating, Pigweed ([4]; 125 g ai/ha): 0
- Plant response rating, Pigweed ([4]; 500 g ai/ha): 0
- Plant response rating, Rice (rice (Oryza sativa); 31 g ai/ha): 0
- Plant response rating, Rice (rice (Oryza sativa); 62 g ai/ha): 0
- Plant response rating, Rice (rice (Oryza sativa); 125 g ai/ha): 0
- Plant response rating, Rice (rice (Oryza sativa); 250 g ai/ha): 0
- Plant response rating, Wheat ([5]; 125 g ai/ha): 0
- Plant response rating, Wheat ([5]; 500 g ai/ha): 0
- Plant response rating, Sedge, Umbrella ([6]; 31 g ai/ha): 0
- Plant response rating, Sedge, Umbrella ([6]; 62 g ai/ha): 0
- Plant response rating, Sedge, Umbrella ([6]; 125 g ai/ha): 0
- Plant response rating, Sedge, Umbrella ([6]; 250 g ai/ha): 0
- Plant response rating, Pigweed ([7]; 125 g ai/ha): 0
- Plant response rating, Pigweed ([7]; 500 g ai/ha): 0
- Plant response rating, Corn (corn (Zea mays) [8]; 125 g ai/ha): 0
- Plant response rating, Corn (corn (Zea mays) [8]; 500 g ai/ha): 0
- Plant response rating, Velvetleaf ([9]; 125 g ai/ha): 0
- Plant response rating, Velvetleaf ([9]; 500 g ai/ha): 20
- Plant response rating, Barnyardgrass ([10]; 125 g ai/ha): 0
- Plant response rating, Barnyardgrass ([10]; 500 g ai/ha): 0
- Plant response rating, Morningglory ([11]; 125 g ai/ha): 0
- Plant response rating, Morningglory ([11]; 500 g ai/ha): 0
- Plant response rating, Wheat ([12]; 125 g ai/ha): 0
- Plant response rating, Wheat ([12]; 500 g ai/ha): 0
- Plant response rating, Barnyardgrass ([13]; 31 g ai/ha, scale 0 to 100): 0
- Plant response rating, Barnyardgrass ([13]; 62 g ai/ha, scale 0 to 100): 0
- Plant response rating, Barnyardgrass ([13]; 125 g ai/ha, scale 0 to 100): 0
- Plant response rating, Barnyardgrass [13, 20]: 0
- Plant response rating, Ducksalad ([14]; 31 g ai/ha): 0
- Plant response rating, Ducksalad ([14]; 62 g ai/ha): 0
- Plant response rating, Ducksalad ([14]; 125 g ai/ha): 0
- Plant response rating, Ducksalad ([14]; 250 g ai/ha): 0
- Plant response rating, Morningglory ([15]; 125 g ai/ha): 0
- Plant response rating, Morningglory ([15]; 500 g ai/ha): 0
- Plant response rating, Barnyardgrass ([16]; 125 g ai/ha): 0
- Plant response rating, Barnyardgrass ([16]; 500 g ai/ha): 0
- Plant response rating, Corn (corn (Zea mays) [17]; 125 g ai/ha): 0
- Plant response rating, Corn (corn (Zea mays) [17]; 500 g ai/ha): 0
- Plant response rating, Crabgrass, Large ([18]; 125 g ai/ha): 0
- Plant response rating, Crabgrass, Large ([18]; 500 g ai/ha): 0
- Plant response rating, Foxtail, Giant ([19]; 125 g ai/ha): 0
- Plant response rating, Foxtail, Giant ([19]; 500 g ai/ha): 0
